# Data: patent US8716228B2, “GPR54 agonists or antagonists for treatment of diseases presenting behavioral abnormalities” (YEDA Research and Development Co. Ltd., priority 2009, dated 2014)
# Where a name gives a salt, the structure may show the parent alone. Square brackets hold non-standard residues; d marks the D form. Peptide text beside a SMILES is read from it. dPhe(4-Cl) = N[C@H](Cc1ccc(Cl)cc1)C(=O)O; d2Nal = N[C@H](Cc1ccc2ccccc2c1)C(=O)O; dCit = NC(=O)NCCC[C@@H](N)C(=O)O; d3Pal = N[C@H](Cc1cccnc1)C(=O)O
# Assays:
# naive C57B1/6 mice [1] = assay: PPI in naive C57B1/6 mice; type: in vivo, mouse; settings: naive animals, GnRH receptor antagonist alone
# Procedure: Prepulse Inhibition (PPI). PPI testing was performed within startle chambers purchased from Med Associates Inc (Med Associates, St. Albans, Vt., USA). […] Briefly, during a period of acclimation, a 65-dB background noise was applied for 5-min, and continued throughout the test session. All sessions for testing of PPI consisted of startle trials (pulse alone, 40-ms, 120-dB), prepulse trials (prepulse 20-ms, 69, 73, 78, or 81 dB followed by a (100-ms delay) pulse), and no-stimulus trials. All sessions were presented in pseudo-random order. The average time between trials was 15 s (range 12-30 s). PPI was calculated as: % PPI=100−{[(startle response for prepulse+pulse)/(startle response for pulse-alone)]×100}. […] Data from no-stimulation trials are not included in the results because the values obtained were negligible relative to values from trials containing startle stimuli.
# Neurotensin receptor antagonist SR142948 (TOCRIS COOKSON LTD) was used at 100 μg/kg 60 min before the PPI analysis.
# GnRH receptor antagonist Cetrorelix Acetate (Cetrotide™, Anaspec Inc. Fremont, Calif.). Control mice were administered the same volume of PBS.
# To examine whether Kp-10 can elevate PPI in naïve mice in a dose dependent manner, we analyzed PPI in C57B1/6 mice that were injected i.p with 100 μl of 1/10/100 μM Kp-10 (SEQ ID NO:3).
# C57B1/6 mice = assay: PPI in MK-801 pharmacological model of schizophrenia; type: in vivo, mouse; settings: acute MK-801 0.1 mg/kg i.p., PPI 15 min later, vs naive mice
# Procedure: (§1) Prepulse Inhibition (PPI). PPI testing was performed within startle chambers purchased from Med Associates Inc (Med Associates, St. Albans, Vt., USA). PPI was analyzed as described previously (Kipnis et al., 2004). Briefly, during a period of acclimation, a 65-dB background noise was applied for 5-min, and continued throughout the test session. All sessions for testing of PPI consisted of startle trials (pulse alone, 40-ms, 120-dB), prepulse trials (prepulse 20-ms, 69, 73, 78, or 81 dB followed by a (100-ms delay) pulse), and no-stimulus trials. All sessions were presented in pseudo-random order. The average time between trials was 15 s (range 12-30 s). PPI was calculated as: % PPI=100−{[(startle response for prepulse+pulse)/(startle response for pulse-alone)]×100}. In all the experiments, there were no significant differences between groups in trials of startle reactivity to pulse alone, and in no-stimulation trials. Data from no-stimulation trials are not included in the results because the values obtained were negligible relative to values from trials containing startle stimuli. Reduced PPI is associated with schizophrenia-related behavior. […]
# To further establish the antipsychotic effect of Kp-10, we evaluated its ability to overcome psychotic symptoms induced by the psycho-mimetic agent, MK-801 (N-methyl-D-aspartate (NMDA) antagonist), which induces neurotransmitter imbalance. […]
# naive C57B1/6 mice [2] = settings: neurotensin receptor antagonist alone (Binder et al., 2001); cited from earlier work
# [3] = system: poly I:C rat model for schizophrenia; settings: prophylactic treatment in peri-adolescence; cited from earlier work
# [4] = system: offspring of poly I:C treated dams; assay: PPI in offspring of poly I:C treated dams (mouse model for schizophrenia); type: in vivo; settings: pregnant C57B1/6 mice 4 mg/kg poly I:C, vs saline
# Procedure: (§2) Poly I:C administration. Rats or mice were bred, and the first day after copulation was defined as day 1 of pregnancy. On gestation day 15, pregnant animals were injected intravenously with 4.0 mg/kg poly I:C (Sigma-Aldrich, Israel) dissolved in saline, or an equivalent volume of saline as a control. Both rats and mice received the same protocol of poly I:C administration.
# Prepulse Inhibition (PPI). PPI testing was performed within startle chambers purchased from Med Associates Inc (Med Associates, St. Albans, Vt., USA). PPI was analyzed as described previously (Kipnis et al., 2004). Briefly, during a period of acclimation, a 65-dB background noise was applied for 5-min, and continued throughout the test session. All sessions for testing of PPI consisted of startle trials (pulse alone, 40-ms, 120-dB), prepulse trials (prepulse 20-ms, 69, 73, 78, or 81 dB followed by a (100-ms delay) pulse), and no-stimulus trials. All sessions were presented in pseudo-random order. The average time between trials was 15 s (range 12-30 s). PPI was calculated as: % PPI=100−{[(startle response for prepulse+pulse)/(startle response for pulse-alone)]×100}. In all the experiments, there were no significant differences between groups in trials of startle reactivity to pulse alone, and in no-stimulation trials. Data from no-stimulation trials are not included in the results because the values obtained were negligible relative to values from trials containing startle stimuli. Reduced PPI is associated with schizophrenia-related behavior. The same protocol was used in mice and rats (FIG. 1A).
# Kisspeptin treatment. Mice were injected i.p with 100 μl of 1/10/100 μM Kp-10 peptide (SEQ ID NO:3) (synthesized at the Weizmann Institute of Science, or Sigma-Aldrich, Israel) dissolved in PBS, 30 minutes before the PPI analysis.
# The ability of a normal lymphocyte population to reverse abnormal PPI behavior in immune deficient mice, encouraged us to test whether immune cells derived from the offspring of poly I:C treated dams would reverse the abnormal behavior of SCID mice in the PPI test. […]
# BDNF = assay: qPCR of BDNF transcripts in hippocampus; type: in vivo, mouse; settings: mRNA, offspring of poly I:C treated dams treated at 8 weeks with Kp-10 or PBS
# Procedure: RNA purification, cDNA synthesis, reverse transcription PCR, and real-time quantitative PCR analysis. For RNA expression analysis, cells from whole hippocampi were extracted with TRI Reagent (MRC, Cincinnati, Ohio), and total cellular RNA was purified from the lysates using the RNeasy kit (Qiagen, Hilden, Germany). RNA (1 μg) was converted to cDNA using SuperScript II (Promega, Madison, Wis.). The amplification cycle was 95° C. for 5 s, 60° C. for 20 s, and 72° C. for 15 s.
# The following primers were used: […]
# To understand what is the mechanism behind the prophylactic treatment of Kp-10 we examined the expression of total brain-derived neurotrophic factor (BDNF) and its exon transcripts 1-4 according to Zajac et al. (2010). […] Recently, association between a BDNF variant and childhood-onset mood disorder was established (Strauss et al., 2005). Therefore, we studied mRNA expression of a few BDNF transcripts in the hippocampus of offspring of PBS treated dams (n=5) compared to offspring of poly I:C treated dams, which were treated at 8 weeks with either Kp-10 (n=6) or PBS (n=6) (Table 3). […] Treatment with Kp-10 at 8 weeks of age induced an increase in the expression of BDNF1 transcript to the normal level (Table 3(ii)). […] In addition, no significant difference was found between the groups in the expression of BDNF transcripts 3 and 4 (Table 3(iv and v)). […] The involvement of BDNF in schizophrenia and its effect on PPI levels are still a debate. Our observations of changes in expression of selective forms of BDNF might explain this apparent dichotomy.
# lymphocytes = assay: Lymphocyte proliferation assay after MBP68-86 vaccination; type: cell-based, Lewis rats; settings: offspring after prenatal poly I:C treatment
# Lewis rats [5] = assay: Experimental autoimmune encephalomyelitis (EAE); type: in vivo; settings: female offspring after prenatal poly I:C treatment, MBP68-86 immunization
# Lewis rats [6] = assay: PPI in offspring of poly I:C treated Lewis rats; type: in vivo; settings: pregnant Lewis rats 4 mg/kg poly I:C, vs progeny of saline-treated animals
# Procedure: as §2
# as §1, with “trials.” for “trials. Data from no-stimulation trials are not included in the results because the values obtained were negligible relative to values from trials containing startle stimuli. Reduced PPI is associated with schizophrenia-related behavior.”
# KiSS-1 = assay: qPCR of KiSS-1 mRNA in hippocampus; type: in vivo, mouse; settings: adult poly I:C affected mice vs age-matched controls
molecule,measurement,setting,value
"CC(=O)N[C@H](Cc1ccc2ccccc2c1)C(=O)N[C@H](Cc1ccc(Cl)cc1)C(=O)N[C@H](Cc1cccnc1)C(=O)N[C@@H](CO)C(=O)N[C@@H](Cc1ccc(O)cc1)C(=O)N[C@H](CCCNC(N)=O)C(=O)N[C@@H](CC(C)C)C(=O)N[C@@H](CCCNC(=N)N)C(=O)N1CCC[C@H]1C(=O)N[C@H](C)C(N)=O [Cetrotide™, Cetrorelix Acetate, reference compound] (Ac-[d2Nal][dPhe(4-Cl)][d3Pal]SY[dCit]LRP[dA]-NH2)",PPI,naive C57B1/6 mice [1],did not affect PPI
"C[C@]12N[C@H](Cc3ccccc31)c1ccccc12 [MK-801, [+]-5-methyl-10,11-dihydro-5H-dibenzo-[a,d]-cyclohepten-5,10-imine hydrogen maleate, reference compound]",PPI response,C57B1/6 mice,significantly reduced PPI response
COc1cccc(OC)c1-c1cc(C(=O)NC2(C(=O)O)C3CC4CC(C3)CC2C4)nn1-c1ccc(C(=O)N(C)CCCN(C)C)cc1C(C)C (centres unmarked) [NTA],PPI levels,naive C57B1/6 mice [2],does not affect PPI levels
Cc1nc2n(c(=O)c1CCN1CCC(c3noc4cc(F)ccc34)CC1)CCCC2 [Risperidone],onset of psychotic symptoms and abnormal brain development,[3],prevented the onset psychotic symptoms and abnormal brain development
polyriboinosinic-polyribocytidylic acid [poly I:C],PPI in adult offspring,[4],reduced PPI
same,Expression of BDNF1 transcript,BDNF,1.2 ± 0.3
same,Expression of BDNF2 transcript,BDNF,5.7 ± 0.1
same,Expression of BDNF3 transcript,BDNF,6.2 ± 0.9
same,Expression of BDNF4 transcript,BDNF,7.4 ± 1
same,Expression of BDNF transcript (total BDNF),BDNF,1.7 ± 0.6
same,Lymphocyte proliferation (PI ± SD),lymphocytes; antigen Con-A,126 ± 67
same,Lymphocyte proliferation (PI ± SD),lymphocytes; antigen MBP68-86,1.0 ± 0.11
same,Lymphocyte proliferation (PI ± SD),lymphocytes; antigen Ova,1.2 ± 0.09
same,Duration of EAE (day ± SEM),Lewis rats [5],5.08 ± 0.3 days
same,Onset of EAE (day ± SEM),Lewis rats [5],11.17 ± 0.2 days
same,PPI in adult offspring,Lewis rats [6],reduction in PPI
same,KiSS-1 mRNA levels in hippocampus,KiSS-1,reduction in KiSS-1 mRNA levels
